Measurements: patent US6596878B2, “Methods and compositions for inhibiting cell proliferative disorders” (Yissum Research & Development Company of the Hebrew …, priority 1994, dated 2003)
Where “and” joins values, the source holds several entries; their conditions need not be identical. Equal entries are not always repeated. Where two headings read alike, the source gives them in different places.

Experiments:
Format in all cases: cell-based
human EGF receptor = molecular target: T1, human EGF receptor (Homo sapiens, UniProt P00533); test: EGF-receptor whole cell kinase assay (EGFR-3T3)
T1 construct: expressed in transfected cells; host or cells: NIH3T3 clone C7 (EGFR/C7; mouse fibroblasts)
Method: (§1) The following target cells were used for cellular kinaseassays: NIH3T3 clone C7 (Honegger et al., supra) engineered to over-express human EGF receptor; NIH3T3 cells engineered to over-express a chimeric receptor containing the EGFR extracellular domain and the HER2 intracellular kinase domain; the human mammary carcinoma line BT474 (ATCC HTB2) expressing HER2; and the human glioblastoma line U1242 that expresses PDGFR-β. Growth assays were carried out using human mammary epithelial SKBR3 (ATCC HTB30) cells, SKOV3 (ATCC HTB77) human ovarian cancer cell line, A431 cells, MCF7 human breast carcinoma cells, MCF7 cells overexpress the HER2 kinase (MCF7-HER2), NIH3T3 cells, and NIH3T3 cells overexpressing the HER2 kinase (3T3-HER2).
Unless otherwise stated the effect of various compounds on receptor tyrosine kinases were assayed as described in this section.
1. EGF-receptor Whole Cell Kinase Assay
EGFR kinase activity (EGFR-3T3 assay) in whole cells was measured as described below:
The following protocol was used:
A. Coat ELISA plates (Corning, 96 well, Cat. #25805-96) with 05-101 antibody at 0.5 μg per well in PBS, 150 μl final volume/well, and store overnight at 4° C. Coated plates are good for up to 10 days when stored at 4° C.
B. On day of use, remove coating buffer and replace with blocking buffer (5% Carnation Instant Non-Fat Dry Milk in PBS). Incubate the plate, shaking, at room temperature (about 23° C. to 25° C.) for 30 minutes. Just prior to use, remove blocking buffer and wash plate 4 times with TBST buffer.
A. EGFR/C7 cell line (Honegger, et al., Cell 51:199-209, 1987) can be use for this assay.
B. Choose dishes having 80-90% confluence for the experiment. Trypsinize cells and stop reaction by adding 10% CS DMEM medium. Suspend cells in DMEM medium (10% CS DMEM medium) and centrifuge once at 1000 rpm, and once at room temperature for 5 minutes.
C. Resuspend cells in seeding medium (DMEM, 0.5% bovine serum), and count the cells using trypan blue. Viability above 90% is acceptable. Seed cells in DMEM medium (0.5% bovine serum) at a density of 10,000 cells per well, 100 μl per well, in a 96 well microtiter plate. Incubate seeded cells in 5% CO2 at 37° C. for about 40 hours.
A. Check seeded cells for contamination using an inverted microscope. Dilute drug stock (10 mg/ml in DMSO) 1:10 in DMEM medium, then transfer 5 μl to a test well for a final drug dilution of 1:200 and a final DMSO concentration of […]. Control wells receive DMSO alone. Incubate in 5% CO2 at 37° C. for one hour.
B. Prepare EGF ligand: dilute stock EGF in DMEM so that upon transfer of 10 μl dilute EGF (1:12 dilution), 25 nM final concentration is attained.
C. Prepare fresh HNTG* sufficient for 100 μl per well; and place on ice.
D. After two hours incubation with drug, add prepared EGF ligand to cells, 10 μl per well, to yield a final concentration of 25 nM. Control wells receive DMEM alone. Incubate, shaking, at room temperature, for 5 minutes.
E. Remove drug, EGF, and DMEM. Wash cells twice with PBS. Transfer HNTG* to cells, 100 μl per well. Place on ice for 5 minutes. Meanwhile, remove blocking buffer from other ELISA plate and wash with TBST as described above.
F. With a pipette tip securely fitted to a micropipettor, scrape cells from plate and homogenize cell material by repeatedly aspirating and dispensing the HNTG* lysis buffer. Transfer lysate to a coated, blocked, and washed ELISA plate. Incubate shaking at room temperature for one hour.
G. Remove lysate and wash 4 times with TBST. Transfer freshly diluted anti-Ptyr antibody to ELISA plate at 100 μl per well. Incubate shaking at room temperature for 30 minutes in the presence of the anti-Ptyr antiserum (1:3000 dilution in TBST).
H. Remove the anti-Ptyr antibody and wash 4 times with TBST. Transfer the freshly diluted TAGO anti-rabbit IgG antibody to the ELISA plate at 100 μl per well.

PDGFR-β = molecular target: T2, PDGFR-β (Homo sapiens, UniProt P09619); test: PDGFR-β cellular kinase assay (U1242 cells); details: Table V, read-out: Estimated IC50 Cellular Kinase Assays PDGFR-β
T2 construct: the human glioblastoma line U1242 that expresses PDGFR-β; endogenous in cells; host or cells: U1242 human glioblastoma cells
Source text: as §1, with “This example illustrates the ability of the exemplary compounds to inhibit receptor tyrosine kinases, such as HER2 and/or EGFR. The” for “The”

[1] = test system: MCF7 human breast carcinoma cells; test: MCF-7 SRB growth assay; details: Table VI, 10% FBS, four days
Source text: as §1, with “This example illustrates the ability of the exemplary compounds to inhibit receptor tyrosine kinases, such as HER2 and/or EGFR. The” for “The”
6. MCF-7 SRB Growth Assay
MCF-7 cells are seeded at 2000 cells/ well in a 96-well flat bottom plate in normal growth media, which was 10% FBS/RPMI supplemented with 2 mM Glutamine. The plate of cells is incubated for about 24 hours at 37° C. after which it receives an equal volume of compound dilution per well making the total volume per well 200 μl. The compound is prepared at 2 times the desired highest final concentration and serially diluted in the normal growth media in a 96-well round bottom plate and then transferred to plate of cells. DMSO serves as the vector control up to 0.2% as final concentration. The cells are then incubated at 37° C. in a humidified 5% CO2 incubator.
Four days following dosing of compound, the media is discarded and 200 μl/well of ice-cold 10% TCA (Trichloroacetic Acid) is added to fix cells. After 60 minutes at 4° C., the TCA is discarded and the plate is rinsed 5 times with water. The plate is then air-dried and 100 μl/well of 0.4% SRB (Sulforhodamine B from Sigma) in 1% Acetic Acid is added to stain cells for 10 minutes at room temperature. The SRB is discarded and the plate is rinsed 5 times with 1% Acetic Acid. After the plate is completely dried, 100 μl/well of 10 mM Tris-base is added to solubilize the dye. After 5 to 10 minutes, the plate is read on a Dynatech ELISA Plate Reader at dual wavelengths at 570 nm and 630 nm.

[2] = Table V, read-out: Estimated IC50 Cellular Kinase Assays EGFR (EGF-3T3)
[3] = Table VI, cellular kinase assay, read-out: EGFR-3T3

T2 sequence (P09619 33-1106): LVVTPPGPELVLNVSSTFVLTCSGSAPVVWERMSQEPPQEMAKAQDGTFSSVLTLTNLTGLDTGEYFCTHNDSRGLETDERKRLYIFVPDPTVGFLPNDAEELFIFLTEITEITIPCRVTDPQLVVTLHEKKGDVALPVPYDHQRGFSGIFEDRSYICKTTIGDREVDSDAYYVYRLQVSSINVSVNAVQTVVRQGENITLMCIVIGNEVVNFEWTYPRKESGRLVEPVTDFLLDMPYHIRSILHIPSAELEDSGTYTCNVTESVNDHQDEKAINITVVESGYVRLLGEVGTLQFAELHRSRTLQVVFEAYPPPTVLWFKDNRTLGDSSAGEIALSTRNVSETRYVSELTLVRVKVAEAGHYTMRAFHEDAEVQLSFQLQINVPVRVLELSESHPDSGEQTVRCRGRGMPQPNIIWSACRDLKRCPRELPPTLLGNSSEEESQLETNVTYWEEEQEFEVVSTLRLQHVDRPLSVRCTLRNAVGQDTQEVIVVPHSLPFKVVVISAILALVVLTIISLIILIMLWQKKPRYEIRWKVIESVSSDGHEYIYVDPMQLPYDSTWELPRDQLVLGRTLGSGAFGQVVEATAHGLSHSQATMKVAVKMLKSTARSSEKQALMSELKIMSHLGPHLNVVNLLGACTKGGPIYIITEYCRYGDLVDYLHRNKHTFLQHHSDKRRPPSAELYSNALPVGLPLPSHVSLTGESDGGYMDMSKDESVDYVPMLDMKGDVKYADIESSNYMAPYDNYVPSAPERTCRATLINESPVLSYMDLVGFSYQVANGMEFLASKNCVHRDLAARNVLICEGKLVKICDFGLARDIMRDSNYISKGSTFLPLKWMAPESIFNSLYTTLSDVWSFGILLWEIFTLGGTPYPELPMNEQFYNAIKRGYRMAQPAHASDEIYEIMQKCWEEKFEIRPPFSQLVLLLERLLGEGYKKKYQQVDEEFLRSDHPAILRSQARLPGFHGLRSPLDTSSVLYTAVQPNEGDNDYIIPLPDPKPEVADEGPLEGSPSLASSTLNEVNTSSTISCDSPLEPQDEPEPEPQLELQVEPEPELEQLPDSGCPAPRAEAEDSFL

CC(C)(C)c1cc(/C=C(\C#N)C(N)=S)cc(C(C)(C)C)c1O [Compound M11]
IC50 (human EGF receptor; [2]): 40 µM
IC50 (human EGF receptor; [3]): 21 µM
IC50 (PDGFR-β): > 100 µM
IC50 ([1]; Homo sapiens, MCF7, 96 h): 4 µM

N#C/C(=C\c1ccc(O)c(O)c1)C(=S)NCc1ccccc1 [Compound M13]
IC50 (human EGF receptor; [2]): > 100 µM
IC50 (human EGF receptor; [3]): > 100 µM
IC50 (PDGFR-β): 60 µM

N#C/C(=C\c1ccc(O)c(O)c1)C(=O)Nc1cccc(C(F)(F)F)c1 [Compound M15]
IC50 (human EGF receptor; [2]): > 100 µM
IC50 (human EGF receptor; [3]): > 100 µM
IC50 ([1]; Homo sapiens, MCF7, 96 h): 15 µM

N#C/C(=C\c1cc(O)c(O)c(I)c1)C(=O)NCCCc1ccccc1 [Compound M16]
IC50 (human EGF receptor; [2]): 4 µM and 4.4 µM
IC50 (human EGF receptor; [3]): 9 µM
IC50 (PDGFR-β): 35 µM

CC(C)(C)c1cc(/C=C(\C#N)C(=O)NCCCc2ccccc2)cc(C(C)(C)C)c1O [Compound M20, (E)-3-(3,5-di-t-Butyl-4-hydroxyphenyl)-2-[(3-phenyl-n-propyl)aminocarbonyl]acrylonitrile]
IC50 (human EGF receptor; [3]): > 100 µM
IC50 ([1]; Homo sapiens, MCF7, 96 h): 6 µM

CC(C)c1cc(/C=C(\C#N)C(=O)NCCCc2ccccc2)cc(C(C)C)c1O [Compound M21, (E)-3-(3,5-Diisopropyl-4-hydroxyphenyl)-2-[(3-phenyl-n-propyl)aminocarbonyl]acrylonitrile]
IC50 (human EGF receptor; [3]): > 100 µM
IC50 ([1]; Homo sapiens, MCF7, 96 h): 14 µM

CC(C)c1cc(C=C(C#N)C(N)=C(C#N)C#N)cc(C(C)C)c1O [Compound M22, (E)-2-(1-Amino-2,2-dicyanoethenyl-3-(3,5-diisopropyl-4-hydroxyphenyl)acrylonitrile)]
IC50 (human EGF receptor; [3]): > 50 µM
IC50 ([1]; Homo sapiens, MCF7, 96 h): 44 µM

CC(C)c1cc(/C=C(\C#N)C(=S)NCCCc2ccccc2)cc(C(C)C)c1O [Compound M24, (E)-3-(3,5-Diisopropyl-4-hyrdroxyphenyl)-2-[(3-phenyl-n-propyl)aminothiocarbonyl]acrylonitrile]
IC50 (human EGF receptor; [3]): > 50 µM
IC50 ([1]; Homo sapiens, MCF7, 96 h): 8 µM

CC(C)c1cc(/C=C(\C#N)S(=O)(=O)c2ccccn2)cc(C(C)C)c1O [Compound M26]
IC50 (human EGF receptor; [3]): > 100 µM

CC(C)c1cc(/C=C(\C#N)S(=O)(=O)CC#N)cc(C(C)C)c1O [Compound M27]
IC50 (human EGF receptor; [3]): > 50 µM
IC50 ([1]; Homo sapiens, MCF7, 96 h): 33 µM

CC(C)c1cc(/C=C(\C#N)S(=O)(=O)/C(C#N)=C/c2cc(C(C)C)c(O)c(C(C)C)c2)cc(C(C)C)c1O [Compound M29]
IC50 (human EGF receptor; [3]): > 50 µM
IC50 ([1]; Homo sapiens, MCF7, 96 h): 12 µM

CC(C)c1cc(/C=C(\C#N)S(=O)(=O)c2ccccc2)cc(C(C)C)c1O [Compound M30]
IC50 (human EGF receptor; [3]): 61 µM
IC50 ([1]; Homo sapiens, MCF7, 96 h): 9 µM

Cc1cc(/C=C(\C#N)S(=O)(=O)c2ccccc2)cc(C)c1O [Compound M31]
IC50 (human EGF receptor; [3]): > 100 µM

Cc1cc(/C=C(\C#N)S(=O)(=O)c2ccccn2)cc(C)c1O [Compound M32]
IC50 (human EGF receptor; [3]): 64 µM

CC(C)(C)c1cc(/C=C(\C#N)S(=O)(=O)c2ccccc2)cc(C(C)(C)C)c1O [Compound M33, (E)-3-(3,5-di-t-Butyl-4-hydroxyphenyl)-2-(phenylsulfonyl)acrylonitrile]
IC50 (human EGF receptor; [3]): > 100 µM
IC50 ([1]; Homo sapiens, MCF7, 96 h): 1 µM

CC(C)(C)c1cc(/C=C(\C#N)S(=O)(=O)c2ccccn2)cc(C(C)(C)C)c1O [Compound M34, (E)-3-(3,5-di-t-Butyl-4-hydroxyphenyl)-2-[(pyrid-2-yl)sulfonyl]acrylonitrile]
IC50 (human EGF receptor; [3]): > 100 µM
IC50 ([1]; Homo sapiens, MCF7, 96 h): 2 µM

CC(C)(C)c1cc(/C=C(\C#N)C(=O)Nc2ccc(C(F)(F)F)cc2)cc(C(C)(C)C)c1O [Compound M35, (E)-3-(3,5-di-t-Butyl-4-hydroxyphenyl)-2-[(4-trifluoromethyl)phenylaminocarbonyl]acrylonitrile]
IC50 (human EGF receptor; [3]): > 100 µM
IC50 ([1]; Homo sapiens, MCF7, 96 h): 0.3 µM

CC(C)(C)c1cc(/C=C(\C#N)S(=O)(=O)CC#N)cc(C(C)(C)C)c1O [Compound M36, (E)-3-(3,5-di-t-Butyl-4-hydroxyphenyl)-2-(cyanomethylsulfonyl)acrylonitrile]
IC50 (human EGF receptor; [3]): 56 µM
IC50 ([1]; Homo sapiens, MCF7, 96 h): 8 µM

(E,E)-2-[[-Cyano-2-(3,5-diisopropyl-4-hydroxyphenyl)ethenyl]sulfonyl]-3-(3,5-di-t-butyl-4-hydroxyphenyl)acrylonitrile [Compound M37]
IC50 (human EGF receptor; [3]): > 100 µM
IC50 [1]: 3 µM
